Assays:
[1] = test system: human endothelial cells from the umbilical-vein (HUVEC); assay: Formation of capillary structures by HUVEC on Matrigel; assay type: cell-based; settings: 100 nM, 6 hours
Experimental: For investigating whether the oligopeptide THGRGFI shares this property, a primary culture of human endothelial cells from the umbilical-vein (HUVEC) was maintained in F12K media supplemented with 20% FBS, 100 μg ml^−1 of heparin, and 25 μg ml^−1 endothelial cell growth supplement (ECGS). Cells from passages 2 to 4 were rinsed with tempered PBS1x and were detached from the plate with 0.25% trypsin-EDTA for ˜3 minutes and centrifuged to remove trypsin. The cells were counted using an hemocytometer and seeded at a density of 29,000 cells cm^−2 in 300 μl of F12K medium supplemented with 20% FBS and with heparin on a 24-well plate, over a layer of ˜9.7 μg μl^−1 Matrigel™ which was previously polymerized for 1 hour at 37° C. Cells were then treated with 100 nM vasoinhibin or the oligopeptide THGRGFI, and after 6 hours, micrographs were obtained in an inverted microscope. The images were analyzed to quantify main joining areas per field using the software “Angiogenesis Analyzer” [Gilles Carpentier. ImageJ contribution: Angiogenesis Analyzer. ImageJ News, 5 Oct. 2012.] and the ImageJ software.

[2] = test system: human umbilical-vein endothelial cells (HUVEC); assay: Proliferation of HUVEC stimulated with VEGF and bFGF (EdU click assay); assay type: cell-based; settings: HUVEC, 25 ng ml^-1 VEGF and 20 ng ml^-1 bFGF, 24 hours, 0.001 to 100 nM; read-out: effective dose (EC50) for inhibition of proliferation
Experimental: On a 96-well plate treated for cell culture, BUVEC E6E7 and HUVEC cells were seeded at a density of ˜14,000 and ˜11,000 cells cm^−2, respectively. BUVEC E6E7 cells were maintained in F12K culture media with 10% (v/v) fetal bovine serum (FBS) and the HUVEC in F12K media supplemented with 20% of FBS, 100 μg ml^−1 heparin and 25 μg ml^−1 of endothelial cell growth supplement (ECGS). After 24 hours, the cells were starved with FBS-reduced media (0.1% of FBS for BUVEC E6E7 and 0.5% for HUVEC) for 16 hours to synchronize cells in phase GO of the reproductive cycle. After this time, FBS and heparin were replenished only to HUVEC. The cells were then treated with vasoinhibin or the oligopeptide THGRGFI in concentrations ranging from 0.001 to 100 nM for 24 hours in the presence of 10 μM of the thymidine analog 5-Ethynyl-2′-deoxyuridine (EdU) and 50 ng ml^−1 VEGF for the BUVEC E6E7 or the combination of 25 ng ml^−1 VEGF and 20 ng ml^−1 bFGF for HUVEC. At the end of the experiment, cells were fixed with 4% paraformaldehyde, permeabilized with 0.5% Triton X-100 in TBS1x, and stained to detect the newly synthetized DNA by the incorporation of EdU using the “click” assay (which involves a copper catalyzed reaction to covalently bind fluorescent azide to the EDU incorporated to DNA). Total DNA was counterstained with Hoechst 33342 and the “click”-stained nuclei were quantified and plotted relative to the total number of Hoechst 33342-stained nuclei.
HUVEC were seeded on a 96 well plate at a density of ˜11,000 cells cm^−2 and maintained in F12K supplemented with 20% of FBS, 100 μg ml^−1 heparin and 25 μg ml^−1 endothelial cell growth supplement (ECGS). After 24 hours, the cells were synchronized in GO with starving conditions (FBS 0.5%) for 16 hours, and after that FBS and the heparin were replenished. Cells were then treated with THGRGFI, the different oligopeptides and 123 amino acids vasoinhibin, each in a concentration of 100 nM, for 24 hours in presence or absence of 10 μM of thymidine analog 5-Ethynyl-2′-deoxyuridine (EdU) and a combination of 25 ng ml^−1 VEGF and 20 ng ml^−1 bFGF. Finally, the cells were fixed with 4% paraformaldehyde, permeabilized with 0.5% of Triton X-100 in TBS1x and stained for the newly synthetized DNA with the ‘click’ method that detects the EdU incorporation. Total DNA was stained with Hoechst 33342 and the percentage of ‘click’-stained nuclei relative to total nuclei (Hoechst 33342-stained) indicated cell proliferation.
Approximately 11,000 HUVEC cells cm^−2 were seeded on a 96 well plate in F12K media with 20% FBS, 100 μg ml^−1 heparin and 25 μg ml^−1 ECGS. After 24 hours, cells were starved with 0.5% of FBS for ˜16 hours, and after that time the FBS and heparin were added again and cells treated with different doses of the alanine substituted oligopeptides for 24 hours, in the presence of EdU and a combination of 25 ng ml^−1 VEGF and 20 ng ml^−1 bFGF. Finally, the cells were fixed, permeabilized and stained to quantify the synthesis of DNA as a sign of proliferation.

[3] = test system: endothelial cell (BUVEC E6E7) monolayer; assay: Vasopermeability in vitro: transit of Evans blue linked albumin across endothelial monolayer; assay type: cell-based, bovine; settings: 100 nM, 50 ng ml^-1 VEGF
Experimental: For evaluating if the oligopeptide THGRGFI conserves the inhibitory properties of vasoinhibin on vascular permeability, the transit of Evans blue linked albumin across an endothelial cell (BUVEC E6E7) monolayer was evaluated as follows:
BUVEC E6E7 cells were seeded over a transwell filter (pore of 0.4 μm) at a density of 10,000 cells cm^−2. After 3 days, the monolayers were starved with low serum (0.1 FBS) for 48 hours. Subsequently, 100 nM of the vasoinhibin or the oligopeptide of the present invention were added to the upper compartment (luminal part) of the transwell support, incubated for 1 hour, and followed by the addition of 50 ng ml^−1 of VEGF. Control (Ctl) was without VEGF, vasoinhibin and the oligopeptide. […] Samples of 50 μl of the abluminal compartment were collected and replaced by fresh PBS at 10, 20, 30 and 60 minutes. The absorbance (620 nm) was measured at all time points using a plate reader iMARK (BioRad). Absorbance values confirmed the transit of Evans blue labeled albumin across the endothelial monolayer.

Substance: Ac-THGRGFI-NH2 [THGRGFI, Thr His Gly Arg Gly Phe Ile]
- effect on capillary structures (main joining areas per field) [1]: disrupted the capillary structures
- EC50 [2]: ~1 nM
- inhibition of VEGF-induced endothelial permeability (Evans blue-albumin transit) [3]: inhibited the VEGF-induced increase in endothelial permeability
